Results published in US20120122860A1, “SOLID FORMS OF SULFONAMIDES AND AMINO ACIDS” (Plexxikon, Inc., priority 2009, published 2012).

Experiments:
A-Raf = target: T1, A-Raf (Homo sapiens, UniProt P10398); test: Kinase activity assay, A-Raf
T1 sequence (P10398 1-606): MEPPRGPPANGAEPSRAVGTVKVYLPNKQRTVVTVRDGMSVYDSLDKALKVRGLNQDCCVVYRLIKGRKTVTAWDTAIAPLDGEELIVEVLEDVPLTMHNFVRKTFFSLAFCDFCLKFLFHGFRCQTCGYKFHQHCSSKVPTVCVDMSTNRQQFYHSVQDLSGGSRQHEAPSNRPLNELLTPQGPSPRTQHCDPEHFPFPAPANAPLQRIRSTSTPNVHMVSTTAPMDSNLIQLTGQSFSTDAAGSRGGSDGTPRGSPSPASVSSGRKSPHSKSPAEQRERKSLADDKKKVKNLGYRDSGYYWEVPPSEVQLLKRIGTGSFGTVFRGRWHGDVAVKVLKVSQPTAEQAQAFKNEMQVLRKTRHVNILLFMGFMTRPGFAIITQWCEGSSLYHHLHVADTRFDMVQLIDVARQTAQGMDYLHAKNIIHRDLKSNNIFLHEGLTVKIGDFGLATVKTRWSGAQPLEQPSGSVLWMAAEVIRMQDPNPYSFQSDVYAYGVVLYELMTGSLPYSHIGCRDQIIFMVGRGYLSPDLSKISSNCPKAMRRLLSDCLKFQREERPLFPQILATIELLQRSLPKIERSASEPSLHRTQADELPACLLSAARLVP

B-Raf = B-Raf (Homo sapiens, UniProt P15056); test: Kinase activity assay, B-Raf; assay type: biochemical; settings: read-out: activity toward kinase B-Raf, IC50
Chain of B-Raf (P15056 whole entry): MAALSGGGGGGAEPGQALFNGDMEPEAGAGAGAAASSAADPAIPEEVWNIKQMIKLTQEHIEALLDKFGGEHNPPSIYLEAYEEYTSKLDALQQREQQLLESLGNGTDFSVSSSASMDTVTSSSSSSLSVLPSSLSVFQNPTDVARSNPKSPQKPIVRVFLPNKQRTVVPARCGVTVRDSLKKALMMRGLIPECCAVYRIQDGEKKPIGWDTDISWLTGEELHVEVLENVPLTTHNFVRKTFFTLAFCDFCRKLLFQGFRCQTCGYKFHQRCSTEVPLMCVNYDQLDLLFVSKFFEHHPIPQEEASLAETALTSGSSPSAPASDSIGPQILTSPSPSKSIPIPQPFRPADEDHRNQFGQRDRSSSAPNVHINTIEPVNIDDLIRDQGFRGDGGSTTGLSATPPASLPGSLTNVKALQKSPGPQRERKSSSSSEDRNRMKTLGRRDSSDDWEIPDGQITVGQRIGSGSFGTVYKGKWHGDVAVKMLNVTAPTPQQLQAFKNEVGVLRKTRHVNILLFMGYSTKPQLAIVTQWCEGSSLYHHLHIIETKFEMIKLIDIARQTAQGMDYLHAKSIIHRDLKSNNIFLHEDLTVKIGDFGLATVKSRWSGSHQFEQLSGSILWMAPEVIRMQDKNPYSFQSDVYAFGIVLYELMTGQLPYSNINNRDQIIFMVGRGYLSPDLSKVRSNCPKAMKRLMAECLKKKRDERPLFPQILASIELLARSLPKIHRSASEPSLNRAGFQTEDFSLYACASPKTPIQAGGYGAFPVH

MAP4K4 = MAP4K4 (Homo sapiens, UniProt O95819); test: Kinase activity assay, MAP4K4
Chain of MAP4K4 (O95819 whole entry): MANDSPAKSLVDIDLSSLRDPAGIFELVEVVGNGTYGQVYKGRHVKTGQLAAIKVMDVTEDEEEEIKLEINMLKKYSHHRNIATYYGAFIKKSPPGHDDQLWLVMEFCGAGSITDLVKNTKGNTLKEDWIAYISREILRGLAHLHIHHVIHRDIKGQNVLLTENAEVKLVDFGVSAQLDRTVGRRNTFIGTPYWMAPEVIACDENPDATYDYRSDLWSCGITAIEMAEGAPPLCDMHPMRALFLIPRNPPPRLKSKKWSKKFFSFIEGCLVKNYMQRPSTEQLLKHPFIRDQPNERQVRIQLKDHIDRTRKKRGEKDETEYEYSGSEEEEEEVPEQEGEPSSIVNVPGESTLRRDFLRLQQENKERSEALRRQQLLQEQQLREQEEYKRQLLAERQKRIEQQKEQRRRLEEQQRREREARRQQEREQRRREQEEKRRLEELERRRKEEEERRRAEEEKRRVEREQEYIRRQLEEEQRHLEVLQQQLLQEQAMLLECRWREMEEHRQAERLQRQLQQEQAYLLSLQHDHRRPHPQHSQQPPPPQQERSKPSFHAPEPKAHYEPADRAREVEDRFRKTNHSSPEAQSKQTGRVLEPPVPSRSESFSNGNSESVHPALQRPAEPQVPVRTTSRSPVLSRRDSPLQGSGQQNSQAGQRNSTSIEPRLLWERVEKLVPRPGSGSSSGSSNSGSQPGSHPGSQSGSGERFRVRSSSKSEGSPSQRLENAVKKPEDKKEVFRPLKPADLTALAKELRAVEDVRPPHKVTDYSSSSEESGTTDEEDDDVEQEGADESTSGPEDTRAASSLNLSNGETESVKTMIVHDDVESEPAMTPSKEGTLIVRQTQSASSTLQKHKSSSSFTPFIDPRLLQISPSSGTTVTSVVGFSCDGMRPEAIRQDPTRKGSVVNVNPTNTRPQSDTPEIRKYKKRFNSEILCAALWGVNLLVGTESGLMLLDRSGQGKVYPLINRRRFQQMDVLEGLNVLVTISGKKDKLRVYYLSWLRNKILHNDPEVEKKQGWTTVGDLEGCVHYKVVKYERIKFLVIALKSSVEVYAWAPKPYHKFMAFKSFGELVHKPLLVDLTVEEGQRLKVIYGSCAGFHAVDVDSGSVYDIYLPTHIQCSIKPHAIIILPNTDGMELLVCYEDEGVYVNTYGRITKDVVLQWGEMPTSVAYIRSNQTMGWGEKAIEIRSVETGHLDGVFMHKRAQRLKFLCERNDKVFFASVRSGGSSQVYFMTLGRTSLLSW

Kit = Kit (Homo sapiens, UniProt P10721); test: Kinase activity assay, Kit
Chain of Kit (P10721 26-976): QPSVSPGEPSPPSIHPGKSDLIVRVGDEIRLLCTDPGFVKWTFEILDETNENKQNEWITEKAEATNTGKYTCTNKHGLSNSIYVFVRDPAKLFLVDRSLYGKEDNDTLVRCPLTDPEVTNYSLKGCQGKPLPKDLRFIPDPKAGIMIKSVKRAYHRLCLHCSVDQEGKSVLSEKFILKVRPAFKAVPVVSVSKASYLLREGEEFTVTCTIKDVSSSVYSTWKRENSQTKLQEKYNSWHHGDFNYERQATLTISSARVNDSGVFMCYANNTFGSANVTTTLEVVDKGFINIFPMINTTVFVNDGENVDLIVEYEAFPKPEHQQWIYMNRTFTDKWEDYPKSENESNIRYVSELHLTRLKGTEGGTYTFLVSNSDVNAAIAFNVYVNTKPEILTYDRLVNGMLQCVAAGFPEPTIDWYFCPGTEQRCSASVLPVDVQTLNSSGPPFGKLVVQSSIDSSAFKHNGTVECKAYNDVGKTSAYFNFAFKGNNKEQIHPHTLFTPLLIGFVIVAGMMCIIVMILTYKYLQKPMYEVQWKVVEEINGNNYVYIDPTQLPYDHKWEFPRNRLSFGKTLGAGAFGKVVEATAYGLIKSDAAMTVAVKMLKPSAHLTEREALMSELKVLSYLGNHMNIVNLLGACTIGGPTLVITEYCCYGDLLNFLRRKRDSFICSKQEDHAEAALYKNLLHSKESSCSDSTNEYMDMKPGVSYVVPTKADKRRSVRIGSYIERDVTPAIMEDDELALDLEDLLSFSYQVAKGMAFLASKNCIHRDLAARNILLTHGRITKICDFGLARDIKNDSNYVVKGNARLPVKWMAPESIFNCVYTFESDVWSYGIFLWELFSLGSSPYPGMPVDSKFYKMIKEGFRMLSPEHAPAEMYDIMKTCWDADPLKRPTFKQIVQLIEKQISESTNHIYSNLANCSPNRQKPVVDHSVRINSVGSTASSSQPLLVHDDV

Fms = Fms (Homo sapiens, UniProt P07333); test: Kinase activity assay, Fms
Kdr = Kdr (Homo sapiens, UniProt P35968); test: Kinase activity assay, Kdr
Src = Src (Homo sapiens, UniProt P12931); test: Kinase activity assay, Src
Chain of Src (P12931 whole entry): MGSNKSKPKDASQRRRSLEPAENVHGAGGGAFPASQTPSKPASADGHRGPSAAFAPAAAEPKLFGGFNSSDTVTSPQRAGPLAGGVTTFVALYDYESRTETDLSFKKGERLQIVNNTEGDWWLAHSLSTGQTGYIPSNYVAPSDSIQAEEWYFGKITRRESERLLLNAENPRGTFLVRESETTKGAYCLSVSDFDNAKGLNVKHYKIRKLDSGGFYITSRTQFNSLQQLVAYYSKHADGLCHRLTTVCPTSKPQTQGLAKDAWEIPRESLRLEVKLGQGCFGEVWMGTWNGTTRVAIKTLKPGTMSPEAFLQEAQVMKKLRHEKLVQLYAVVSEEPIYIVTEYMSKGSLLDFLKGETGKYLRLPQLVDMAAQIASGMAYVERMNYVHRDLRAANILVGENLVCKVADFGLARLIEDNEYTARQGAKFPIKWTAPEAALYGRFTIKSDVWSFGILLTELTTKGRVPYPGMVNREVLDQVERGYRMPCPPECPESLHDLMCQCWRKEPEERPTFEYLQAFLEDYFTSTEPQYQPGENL

B-Raf V600E = B-Raf V600E (Homo sapiens, UniProt P15056, V600E); test: Kinase activity assay, B-Raf V600E; assay type: biochemical; settings: read-out: activity toward kinase B-Raf V600E, IC50
Chain of B-Raf V600E (P15056 whole entry V600E): as the sequence (P15056 whole entry) above, with V600E counted along it

C-Raf = C-Raf (Homo sapiens, UniProt P04049); test: Kinase activity assay, C-Raf
Chain of C-Raf (P04049 whole entry): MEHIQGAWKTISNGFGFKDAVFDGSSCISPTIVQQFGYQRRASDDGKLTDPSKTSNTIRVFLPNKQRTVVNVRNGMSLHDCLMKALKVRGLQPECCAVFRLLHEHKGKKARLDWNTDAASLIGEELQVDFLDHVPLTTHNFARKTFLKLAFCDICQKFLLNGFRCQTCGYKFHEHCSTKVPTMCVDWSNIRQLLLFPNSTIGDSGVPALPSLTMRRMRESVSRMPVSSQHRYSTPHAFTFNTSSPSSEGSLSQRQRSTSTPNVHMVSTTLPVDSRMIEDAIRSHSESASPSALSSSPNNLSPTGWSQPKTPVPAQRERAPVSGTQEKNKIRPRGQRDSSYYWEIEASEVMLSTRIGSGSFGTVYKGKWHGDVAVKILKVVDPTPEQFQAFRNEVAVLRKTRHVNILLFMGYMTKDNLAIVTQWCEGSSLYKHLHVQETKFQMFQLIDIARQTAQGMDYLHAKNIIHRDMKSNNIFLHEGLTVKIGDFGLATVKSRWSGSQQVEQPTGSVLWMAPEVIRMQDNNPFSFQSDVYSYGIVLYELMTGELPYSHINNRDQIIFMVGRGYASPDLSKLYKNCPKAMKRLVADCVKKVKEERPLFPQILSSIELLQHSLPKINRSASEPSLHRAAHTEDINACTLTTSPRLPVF

TEC = target: T2, TEC (Homo sapiens, UniProt P42680); test: Kinase activity assay, TEC
T2 sequence (P42680 1-631): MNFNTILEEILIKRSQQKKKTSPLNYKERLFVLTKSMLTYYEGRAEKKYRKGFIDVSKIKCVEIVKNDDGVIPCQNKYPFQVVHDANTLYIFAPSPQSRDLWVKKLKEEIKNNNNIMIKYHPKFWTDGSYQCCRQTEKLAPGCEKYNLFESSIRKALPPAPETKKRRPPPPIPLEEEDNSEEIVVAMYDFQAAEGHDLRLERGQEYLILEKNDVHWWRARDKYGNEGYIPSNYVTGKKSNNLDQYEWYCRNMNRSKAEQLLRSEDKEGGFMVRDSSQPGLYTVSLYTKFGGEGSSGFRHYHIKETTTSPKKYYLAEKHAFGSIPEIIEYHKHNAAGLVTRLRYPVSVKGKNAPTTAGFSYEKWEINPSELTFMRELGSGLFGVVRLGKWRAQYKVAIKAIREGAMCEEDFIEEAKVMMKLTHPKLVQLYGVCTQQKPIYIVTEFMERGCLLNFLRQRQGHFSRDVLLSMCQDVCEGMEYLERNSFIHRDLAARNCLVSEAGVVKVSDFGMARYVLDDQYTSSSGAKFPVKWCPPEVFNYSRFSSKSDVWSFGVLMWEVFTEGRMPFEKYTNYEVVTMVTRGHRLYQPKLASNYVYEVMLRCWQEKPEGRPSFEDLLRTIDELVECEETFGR

Measured: IC50

O=C(c1c(F)ccc(NS(=O)(=O)c2cc(F)ccc2F)c1F)c1c[nH]c2ncc(Cl)cc12 [P-2002, N-[3-(5-Chloro-1H-pyrrolo[2,3-b]pyridine-3-carbonyl)-2,4-difluoro-phenyl]-2,5-difluoro-benzenesulfonamide]
not listed: TEC
≤ 10 µM: all other assays above

COc1cnc2[nH]cc(C(=O)c3c(F)ccc(NS(=O)(=O)c4cc(F)ccc4F)c3F)c2c1 [P-2010, N-[2,4-Difluoro-3-(5-methoxy-1H-pyrrolo[2,3-b]pyridine-3-carbonyl)-phenyl]-2,5-difluoro-benzenesulfonamide]
not listed: TEC
≤ 10 µM: all other assays above

Cc1cnc2[nH]cc(C(=O)c3c(F)ccc(NS(=O)(=O)c4cc(F)ccc4F)c3F)c2c1 [P-2015, N-[2,4-Difluoro-3-(5-methyl-1H-pyrrolo[2,3-b]pyridine-3-carbonyl)-phenyl]-2,5-difluoro-benzenesulfonamide]
not listed: TEC
≤ 10 µM: all other assays above

O=C(c1c(F)ccc(NS(=O)(=O)c2ccccc2F)c1F)c1c[nH]c2nccc(Cl)c12 [P-2017, N-[3-(4-Chloro-1H-pyrrolo[2,3-b]pyridine-3-carbonyl)-2,4-difluoro-phenyl]-2-fluoro-benzenesulfonamide]
not listed: TEC
≤ 10 µM: all other assays above

O=C(c1c(F)ccc(NS(=O)(=O)c2cc(F)ccc2F)c1F)c1c[nH]c2nccc(Cl)c12 [P-2018, N-[3-(4-Chloro-1H-pyrrolo[2,3-b]pyridine-3-carbonyl)-2,4-difluoro-phenyl]-2,5-difluoro-benzenesulfonamide]
not listed: TEC
≤ 10 µM: all other assays above

N#Cc1cnc2[nH]cc(C(=O)c3c(F)ccc(NS(=O)(=O)c4cccnc4)c3F)c2c1 [P-2072, Pyridine-3-sulfonic acid [3-(5-cyano-1H-pyrrolo[2,3-b]pyridine-3-carbonyl)-2,4-difluoro-phenyl]-amide]
≤ 10 µM: B-Raf | TEC | B-Raf V600E | C-Raf

CCCc1ccc(-c2cnc3[nH]cc(C(=O)c4c(F)ccc(NS(=O)(=O)CCC)c4F)c3c2)cn1 [P-2224, Propane-1-sulfonic acid {2,4-difluoro-3-[5-(6-propyl-pyridin-3-yl)-1H-pyrrolo[2,3-b]pyridine-3-carbonyl]-phenyl}-amide]
not listed: TEC
≤ 10 µM: all other assays above

CCCS(=O)(=O)Nc1ccc(F)c(C(=O)c2c[nH]c3ncc(CCC(=O)OC)cc23)c1F [P-2230, 3-{3-[2,6-Difluoro-3-(propane-1-sulfonylamino)-benzoyl]-1H-pyrrolo[2,3-b]pyridin-5-yl}-propionic acid methyl ester]
not listed: TEC
≤ 10 µM: all other assays above

CCCS(=O)(=O)Nc1ccc(F)c(C(=O)c2c[nH]c3ncc(-c4ccc(OCCN5CCOCC5)nc4)cc23)c1F [P-2232, Propane-1-sulfonic acid (2,4-difluoro-3-{5-[6-(2-morpholin-4-yl-ethoxy)-pyridin-3-yl]-1H-pyrrolo[2,3-b]pyridine-3-carbonyl}-phenyl)-amide]
not listed: TEC
≤ 10 µM: all other assays above

CCCS(=O)(=O)Nc1ccc(F)c(C(=O)c2c[nH]c3ncc(-c4ccc(OCCN5CCCC5)nc4)cc23)c1F [P-2233, Propane-1-sulfonic acid (2,4-difluoro-3-{5-[6-(2-pyrrolidin-1-yl-ethoxy)-pyridin-3-yl]-1H-pyrrolo[2,3-b]pyridine-3-carbonyl}-phenyl)-amide]
not listed: TEC
≤ 10 µM: all other assays above

CCCS(=O)(=O)Nc1ccc(F)c(C(=O)c2c[nH]c3ncc(-c4ccc(OCCCN5CCOCC5)nc4)cc23)c1F [P-2236, Propane-1-sulfonic acid (2,4-difluoro-3-{5-[6-(3-morpholin-4-yl-propoxy)-pyridin-3-yl]-1H-pyrrolo[2,3-b]pyridine-3-carbonyl}-phenyl)-amide]
not listed: TEC
≤ 10 µM: all other assays above

O=C(c1c(F)ccc(NS(=O)(=O)CC(F)(F)F)c1F)c1c[nH]c2ncc(Cl)cc12 [P-2339, 2,2,2-Trifluoro-ethanesulfonic acid [3-(5-chloro-1H-pyrrolo[2,3-b]pyridine-3-carbonyl)-2,4-difluoro-phenyl]-amide]
not listed: Kit | TEC
≤ 10 µM: all other assays above
